The results in this text go back to PubChem BioAssay AID651592 (Sanford-Burnham Center for Chemical Genomics, 2012).

Some results are limits rather than exact numbers.

Assay [1] can be described thus: inhibitors of NFkB activation in CF airway cells, SAR follow-up, KKLEB cells, panel, IL8 HTRF, NFkB-GFP (AID 651592).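 Also: immortalized cystic fibrosis airway epithelial KKLEB cells with an NF-kB GFP reporter.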 The settings on record: PAF/TNFa-induced NFkB-GFP / IL8 HTRF, CF-PAF assay. A general note: In TR-FRET formats the signal depends on donor and acceptor labels being close together.
The next assay has as its system IL8. The description is as above. The note with it: PAF/TNFa-induced NFkB-GFP / IL8 HTRF, mean of runs, mean IC50 across panel replicates.
For assay [2], the target named is Interleukin-8 (Homo sapiens) (UniProt P10145). Described as above. The settings on record: PAF/TNFa-induced NFkB-GFP / IL8 HTRF.
Chain of Interleukin-8 (Homo sapiens) (P10145 whole entry, looked up): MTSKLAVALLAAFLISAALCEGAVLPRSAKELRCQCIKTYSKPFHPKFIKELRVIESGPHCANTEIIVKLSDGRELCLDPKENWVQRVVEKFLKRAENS
[3] abbreviates: mean of runs, mean IC50 across panel replicates.

For `Cc1ccc(NCc2cc3c(C(C)(C)C)nn(-c4ccccc4)c3[nH]c2=O)cc1`, the IC50 in assay [1] (setting [3]) was 39.7 µM; in assay [1] (run 1) it was more than 66 µM; in assay [1] (run 2), 26 µM; in assay [1] (run 3), 43.2 µM; in assay [1] (run 4) it was more than 66 µM; in assay [1] (run 5) it was 13.4 µM. In addition, the IC50 in assay [1] (run 6) is 23.8 µM; with IL8 (PAF-induced), 4.49 µM; in the assay on IL8 (TNFa-induced) it was more than 66 µM; in assay [2] (IL8, PAF-induced, run 1), 2.68 µM; in assay [2] (IL8, PAF-induced, run 2), 3.24 µM; in assay [2] (IL8, PAF-induced, run 3), 3.47 µM. Further, the IC50 in assay [2] (IL8, PAF-induced, run 4) is 3.84 µM; in assay [2] (IL8, PAF-induced, run 5), 5.83 µM; in assay [2] (IL8, PAF-induced, run 6), 7.9 µM; in assay [2] (IL8, TNFa-induced, run 1), more than 66 µM; in assay [2] (IL8, TNFa-induced, run 2), more than 66 µM; in assay [2] (IL8, TNFa-induced, run 3) it was more than 66 µM. The IC50 is more than 66 µM in assay [2] (IL8, TNFa-induced, run 4); more than 66 µM in assay [2] (IL8, TNFa-induced, run 5); more than 66 µM in assay [2] (IL8, TNFa-induced, run 6).
For `O=C(Nc1ccc(N2CCN(C(=O)c3ccc(F)cc3)CC2)cc1)c1ccncc1`, the half-inhibitory concentration (IC50) in assay [1] (setting [3]), in assay [1] (run 1), in assay [1] (run 2), in assay [1] (run 3), in assay [1] (run 4) and in assay [1] (run 5) was more than 66 µM each time. Further, the IC50 in assay [1] (run 6) is more than 66 µM; in the assay on IL8 (PAF-induced) it was more than 66 µM; in the assay with IL8 (TNFa-induced), more than 66 µM; in assay [2] (IL8, PAF-induced, run 1), more than 66 µM; in assay [2] (IL8, PAF-induced, run 2) it was more than 66 µM; in assay [2] (IL8, PAF-induced, run 3) it was more than 66 µM. Further, the IC50 was more than 66 µM in assay [2] (IL8, PAF-induced, run 4); more than 66 µM in assay [2] (IL8, PAF-induced, run 5); more than 66 µM in assay [2] (IL8, PAF-induced, run 6); more than 66 µM in assay [2] (IL8, TNFa-induced, run 1); more than 66 µM in assay [2] (IL8, TNFa-induced, run 2); more than 66 µM in assay [2] (IL8, TNFa-induced, run 3). The IC50 is more than 66 µM in assay [2] (IL8, TNFa-induced, run 4); more than 66 µM in assay [2] (IL8, TNFa-induced, run 5); more than 66 µM in assay [2] (IL8, TNFa-induced, run 6).
For `O=C(Nc1ccc(N2CCN(C(=O)c3ccccc3F)CC2)cc1)c1ccccn1`, the IC50 in assay [1] (setting [3]) was 45.7 µM; in assay [1] (run 1) it was 32.5 µM; in assay [1] (run 2), 40.3 µM; in assay [1] (run 3), 64.3 µM; in assay [1] (run 4) it was more than 66 µM; in assay [1] (run 5), more than 66 µM. For the same compound, the concentration for half-maximal inhibition (IC50) in assay [1] (run 6) is more than 66 µM; in the assay on IL8 (PAF-induced), more than 66 µM; in the assay with IL8 (TNFa-induced) it was more than 66 µM; in assay [2] (IL8, PAF-induced, run 1), more than 66 µM; in assay [2] (IL8, PAF-induced, run 2), more than 66 µM; in assay [2] (IL8, PAF-induced, run 3), more than 66 µM. For the same compound, the IC50 in assay [2] (IL8, PAF-induced, run 4) is more than 66 µM; in assay [2] (IL8, PAF-induced, run 5), more than 66 µM; in assay [2] (IL8, PAF-induced, run 6), more than 66 µM; in assay [2] (IL8, TNFa-induced, run 1), more than 66 µM; in assay [2] (IL8, TNFa-induced, run 2) it was more than 66 µM; in assay [2] (IL8, TNFa-induced, run 3), more than 66 µM. Further, the IC50 in assay [2] (IL8, TNFa-induced, run 4) is more than 66 µM; in assay [2] (IL8, TNFa-induced, run 5), more than 66 µM; in assay [2] (IL8, TNFa-induced, run 6) it was more than 66 µM.
Turning to `O=C(Nc1ccc(N2CCN(C(=O)c3ccccc3)CC2)cc1)c1ccncc1`, the IC50 in assay [1] (setting [3]) is 39.7 µM; in assay [1] (run 1), 32.7 µM; in assay [1] (run 2) it was 38.2 µM; in assay [1] (run 3), 48.1 µM; in assay [1] (run 4), more than 66 µM; in assay [1] (run 5) it was more than 66 µM. The IC50 is more than 66 µM in assay [1] (run 6); 55.8 µM with IL8 (PAF-induced); more than 66 µM in the assay on IL8 (TNFa-induced); more than 66 µM in assay [2] (IL8, PAF-induced, run 1); more than 66 µM in assay [2] (IL8, PAF-induced, run 2); 4.58 µM in assay [2] (IL8, PAF-induced, run 3). The half-inhibitory concentration (IC50) was more than 66 µM in assay [2] (IL8, PAF-induced, run 4); more than 66 µM in assay [2] (IL8, PAF-induced, run 5); more than 66 µM in assay [2] (IL8, PAF-induced, run 6); more than 66 µM in assay [2] (IL8, TNFa-induced, run 1); more than 66 µM in assay [2] (IL8, TNFa-induced, run 2); more than 66 µM in assay [2] (IL8, TNFa-induced, run 3). The IC50 was more than 66 µM in assay [2] (IL8, TNFa-induced, run 4); more than 66 µM in assay [2] (IL8, TNFa-induced, run 5); more than 66 µM in assay [2] (IL8, TNFa-induced, run 6).
On to `O=C(Nc1ccc(N2CCN(C(=O)c3ccccc3)CC2)cc1)c1cncc(Br)c1`, for which the IC50 came to 3.75 µM in assay [1] (setting [3]); 2.7 µM in assay [1] (run 1); 3.16 µM in assay [1] (run 2); 3.43 µM in assay [1] (run 3); 2.93 µM in assay [1] (run 4); 4.5 µM in assay [1] (run 5). For the same compound, the IC50 is 5.77 µM in assay [1] (run 6); 9.06 µM in the assay on IL8 (PAF-induced); 60.9 µM with IL8 (TNFa-induced); 4.34 µM in assay [2] (IL8, PAF-induced, run 1); 7.55 µM in assay [2] (IL8, PAF-induced, run 2); 9.86 µM in assay [2] (IL8, PAF-induced, run 3). Also, the IC50 is 0.898 µM in assay [2] (IL8, PAF-induced, run 4); 7.37 µM in assay [2] (IL8, PAF-induced, run 5); 24.3 µM in assay [2] (IL8, PAF-induced, run 6); more than 66 µM in assay [2] (IL8, TNFa-induced, run 1); more than 66 µM in assay [2] (IL8, TNFa-induced, run 2); 35.6 µM in assay [2] (IL8, TNFa-induced, run 3). Besides, the IC50 was more than 66 µM in assay [2] (IL8, TNFa-induced, run 4); more than 66 µM in assay [2] (IL8, TNFa-induced, run 5); more than 66 µM in assay [2] (IL8, TNFa-induced, run 6).

What is called IC50 is the midpoint of a concentration-inhibition curve. Higher therefore signals lower potency.
